Assay results reported in patent publication US6583180B2, “Glucocorticoid receptor modulators” (Abbott Laboratories, priority 2001, dated 2003).
One block for each molecule: values may come before it.

Columns and labels:
[1] = biological target: T1, Human glucocorticoid receptors (Homo sapiens, UniProt P04150); assay: Radioligand filter binding assay, displacement of 3[H]-dexamethasone from hGR; details: read-out: GR Binding (% Inhibition at 1.7 μM)
T1 construct: made in house; host or cells: Sf9 insect cells, recombinant baculovirus (BAC-TO-BAC)
T1 sequence (P04150 1-777): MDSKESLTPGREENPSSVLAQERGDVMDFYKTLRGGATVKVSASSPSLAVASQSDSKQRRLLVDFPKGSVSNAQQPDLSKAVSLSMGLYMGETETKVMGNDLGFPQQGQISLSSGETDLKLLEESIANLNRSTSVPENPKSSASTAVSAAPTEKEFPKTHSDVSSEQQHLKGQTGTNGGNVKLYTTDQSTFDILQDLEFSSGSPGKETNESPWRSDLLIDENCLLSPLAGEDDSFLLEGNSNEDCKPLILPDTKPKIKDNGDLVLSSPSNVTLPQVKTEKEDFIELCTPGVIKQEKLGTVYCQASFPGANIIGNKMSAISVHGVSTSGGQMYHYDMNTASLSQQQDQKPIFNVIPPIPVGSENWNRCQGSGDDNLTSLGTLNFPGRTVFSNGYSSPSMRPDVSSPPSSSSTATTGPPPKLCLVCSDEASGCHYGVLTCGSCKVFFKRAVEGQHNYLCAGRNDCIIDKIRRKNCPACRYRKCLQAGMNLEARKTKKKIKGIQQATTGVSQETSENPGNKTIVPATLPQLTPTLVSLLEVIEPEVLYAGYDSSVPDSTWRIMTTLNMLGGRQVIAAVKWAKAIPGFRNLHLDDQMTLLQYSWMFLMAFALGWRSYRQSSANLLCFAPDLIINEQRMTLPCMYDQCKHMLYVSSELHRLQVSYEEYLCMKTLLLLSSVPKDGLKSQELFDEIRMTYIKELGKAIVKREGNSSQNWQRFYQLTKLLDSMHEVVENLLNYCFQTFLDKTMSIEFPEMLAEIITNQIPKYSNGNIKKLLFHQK
Summary of the method: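 Recombinant hGR extract from baculovirus-infected Sf9 cells (final ~1 nM receptor) incubated with ³H-dexamethasone and test compound dilutions in duplicate, EDTA/phosphate pH 8 buffer with MTG, overnight (15-20 h) at +4° C. Bound label collected on PEI-treated GF/B filters and scintillation-counted; IC50 from four-parameter fit of corrected cpm.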

[2] = biological target: T2, progesterone receptor (PR) (Homo sapiens, UniProt P06401); assay: Radioligand binding assay for progesterone receptor (similar protocol);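 further: radioligand binding measured with cytosol preparations containing the human progesterone receptor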
T2 sequence (P06401 1-933): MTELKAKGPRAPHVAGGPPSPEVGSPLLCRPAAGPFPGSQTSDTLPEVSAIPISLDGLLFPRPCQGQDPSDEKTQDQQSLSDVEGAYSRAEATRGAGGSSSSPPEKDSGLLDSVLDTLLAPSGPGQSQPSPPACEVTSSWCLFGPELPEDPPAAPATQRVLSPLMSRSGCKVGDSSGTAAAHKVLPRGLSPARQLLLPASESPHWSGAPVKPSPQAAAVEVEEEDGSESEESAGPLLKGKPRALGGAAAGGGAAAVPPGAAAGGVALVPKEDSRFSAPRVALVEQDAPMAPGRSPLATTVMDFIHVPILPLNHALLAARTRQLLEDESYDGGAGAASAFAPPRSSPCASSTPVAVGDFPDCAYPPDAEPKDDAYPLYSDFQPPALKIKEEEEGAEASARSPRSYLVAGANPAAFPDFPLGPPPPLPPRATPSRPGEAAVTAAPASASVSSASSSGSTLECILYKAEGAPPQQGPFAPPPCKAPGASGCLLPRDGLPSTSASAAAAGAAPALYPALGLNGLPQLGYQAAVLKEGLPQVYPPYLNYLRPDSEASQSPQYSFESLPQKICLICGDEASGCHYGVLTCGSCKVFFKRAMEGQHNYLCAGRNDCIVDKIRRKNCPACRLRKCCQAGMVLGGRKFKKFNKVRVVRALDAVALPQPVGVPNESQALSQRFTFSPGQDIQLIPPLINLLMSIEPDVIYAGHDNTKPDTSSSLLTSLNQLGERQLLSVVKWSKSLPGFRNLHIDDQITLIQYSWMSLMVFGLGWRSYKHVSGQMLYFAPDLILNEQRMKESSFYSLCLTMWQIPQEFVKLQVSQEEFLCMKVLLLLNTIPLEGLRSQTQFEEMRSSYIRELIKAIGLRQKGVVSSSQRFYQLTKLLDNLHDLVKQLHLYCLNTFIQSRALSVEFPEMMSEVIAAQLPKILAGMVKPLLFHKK
Excerpt: Methods for Radiolipand Binding Studies with Human Glucocorticoid and Progesterone Receptor Cytosol

[3] = test system: obese diabetic db/db transgenic mice; details: Friedman et al. 1997; cited from earlier work

Structure (SMILES): Cc1c(NS(C)(=O)=O)cccc1N(Cc1ccccc1)Cc1ccc(Oc2cccc(OCCCNS(C)(=O)=O)c2)cc1 [Example 71, N-[3-(3-{4-[(benzyl{2-methyl-3-[(methylsulfonyl)amino]phenyl}amino)methyl]phenoxy}phenoxy)propyl]methanesulfonamid]
inhibition at 1.7 µM [1]: 95.2%
IC50 [2]: 537 nM

Structure (SMILES): Cc1c(NS(C)(=O)=O)cccc1N(Cc1ccccc1)Cc1ccc(Oc2cccc(CCCO)c2)cc1 [Example 65, N-[3-(benzyl{4-[3-(3-hydroxypropyl)phenoxy]benzyl}amino)-2-methylphenyl]methanesulfonamide]
inhibition at 1.7 µM [1]: 94%
IC50 [2]: 633 nM

Structure (SMILES): COc1ccc(Oc2ccc(CN(Cc3ccc(F)cc3F)c3cccc(NS(C)(=O)=O)c3C)cc2)cc1OC [Example 141, N-(3-{(2,4-difluorobenzyl)[4-(3,4-dimethoxyphenoxy)benzyl]amino}-2-methylphenyl)methanesulfonamide]
inhibition at 1.7 µM [1]: 85.4%
IC50 [2]: 8050 nM

Structure (SMILES): CC#C[C@]1(O)CC[C@H]2[C@@H]3CCC4=CC(=O)CCC4=C3[C@@H](c3ccc(N(C)C)cc3)C[C@@]21C [Mifepristone]
reduction of plasma glucose levels [3]: 50%

Structure (SMILES): Cc1c(NS(C)(=O)=O)cccc1N(Cc1ccc(OCc2ccco2)cc1)Cc1ccc(F)cc1F [Example 155, N-(3-{(2,4-difluorobenzyl)[4-(2-furylmethoxy)benzyl]amino}-2-methylphenyl)methanesulfonamide]
inhibition at 1.7 µM [1]: 92.8%
IC50 [2]: 499 nM

Structure (SMILES): Cc1c(NS(C)(=O)=O)cccc1N(Cc1ccccc1)Cc1ccc(Oc2cccc(OC(C)C(=O)O)c2)cc1 (stereo not drawn) [Example 111, 2-(3-{4-[(benzyl{2-methyl-3-[(methylsulfonyl)amino]phenyl}amino)methyl]phenoxy}phenoxy)propanoic acid]
inhibition at 1.7 µM [1]: 95.3%
IC50 [2]: 773 nM

Structure (SMILES): COc1ccc(NS(C)(=O)=O)cc1N(Cc1ccccc1Br)Cc1ccccc1Br [Example 36, N-{3-[bis(2-bromobenzyl)amino]-4-methoxyphenyl}methanesulfonamide]
inhibition at 1.7 µM [1]: 85.5%
IC50 [2]: 1200 nM

More lines, now with the values ahead:

inhibition at 1.7 µM [1]: 97.2%
IC50 [2]: 1100 nM
Structure (SMILES): Cc1c(NS(C)(=O)=O)cccc1N(Cc1ccccc1)Cc1ccc(Oc2cccc(OCCNC(=O)CCCC(=O)O)c2)cc1 [Example 79, 5-{[2-(3-{4-[(benzyl{2-methyl-3-[(methylsulfonyl)amino]phenyl}amino)methyl]phenoxy}phenoxy)ethyl]amino}-5-oxopentanoic acid]

inhibition at 1.7 µM [1]: 89.3%
IC50 [2]: > 10000 nM
Structure (SMILES): CC#CCCOc1ccc(CN(Cc2ccc(F)cc2F)c2cccc(NS(C)(=O)=O)c2C)cc1 [Example 143, N-(3-{(2,4-difluorobenzyl)[4-(pent-3-ynyloxy)benzyl]amino}-2-methylphenyl)methanesulfonamide]

inhibition at 1.7 µM [1]: 98.3%
IC50 [2]: 2350 nM
Structure (SMILES): Cc1c(NS(C)(=O)=O)cccc1N(Cc1ccc(Oc2ccc(CCCC(=O)NCCCN3CCCC3=O)cc2)cc1)Cc1ccc(F)cc1F [Example 75, 4-(4-{4-[((2,4-difluorobenzyl){2-methyl-3-[(methylsulfonyl)amino]phenyl}amino)methyl]phenoxy}phenyl)-N-[3-(2-oxopyrrolidin-1-yl)propyl]butanamide]

inhibition at 1.7 µM [1]: 87%
IC50 [2]: > 10000 nM
Structure (SMILES): CCOC(=O)/C=C/c1c(NS(C)(=O)=O)cccc1N(Cc1ccccc1)Cc1ccccc1 [Example 40, N-[3-(dibenzylamino)-2-((E)-3-ethoxy-3-oxo-1-propenyl)phenyl]methanesulfonamide]
